8 molecules from patent US20120015399A1, “FLUORESCENT SOLVATOCHROMIC PIGMENT” (National University Corporation Hokkaido University, priority 2009, published 2012) can be followed below.

A short description of data set [1]: Fluorescence spectra of thiophene derivatives in solvents of different polarity. It is filed as physicochemical. As for the experimental part:
(§1) In the present Example, the thiophene derivatives (Compounds 3 to 6) obtained in Synthesis Examples 1 and 2 were dissolved in a variety of solvents with different polarity, and the absorption and the fluorescent spectra were measured.
Next, fluorescence spectra of the thiophene derivatives were measured. The fluorescence spectra were measured using the same samples used for the absorption spectra and using a fluorescence spectrophotometer (F-4500 manufactured by Hitachi Ltd.)
The numbers in the table indicate compound numbers.

Data set [2] is described as follows: Absorption spectra of thiophene derivatives in solvents of different polarity. The format is physicochemical. The note with it: for Molar absorption coefficient: at maximum absorption wavelength. How it is done: as §1
Now, the solvent polarity ET(30) (kcal/mole) was obtained by dissolving the betaine dye of the following formula that is a light absorbing solvatochromic dye in each solvent and incorporating the maximum absorption wavelength, λ (nm), into the equation ET(30)=28591/λ.
The thiophene derivative solutions were prepared by using a standard solvent for spectral measurement (Wako Pure Chemical Industries, Ltd.) in concentrations of from […] to 1.2×10^−5M, and absorptions were measured with a visible/ultraviolet spectrophotometer (V-560 UV/VIS Spectrophotometer manufactured by JASCO Corporation). The maximum absorption wavelength (nm) is shown in Table 2, and the molar absorption coefficient (mol^−1cm^−1) at the maximum absorption wavelength is shown in Table 3. The numbers in the tables indicate compound numbers.

For data set [3], the system named is human colon cancer cell T84. The data set can be described thus: Staining of cultured cells, confocal laser fluorescence microscopy. It is filed as cell-based. As for the experimental part:
In the present Example, Compound 7 was introduced into cultured human colon cancer cell T84 and its image was observed using a fluorescence microscope.
Human colon cancer cell T84 culture (cell stock-microbial stock-gene bank (ATCC) number CCL-248, supplied by Summit Pharmaceuticals International Corporation) in a sub-confluent state that had been cultured (37° C., 5% CO2) for two to four days in a glass bottom dish (35 mm, Matsunami Glass Ind., Ltd.) was washed with phosphoric acid buffered physiological saline solution. One hundred microliters of a DMSO solution of 2×10^−5 M of Compound 7 was added dropwise near the cells, and a reaction was allowed to occur for five minutes at room temperature. The cells were washed again using phosphoric acid buffered physiological saline solution and were immediately exposed to an argon laser (488 nm) to reach an excited state in the phosphoric acid buffered physiological saline solution. The response was observed using a confocal laser microscope (LSM510META manufactured by Carl Zeiss).
In the present Comparative Example, the compound shown below described in Reference 3 (Japanese Patent Application Public Disclosure No. 2008-291210) was used in place of Compound 7, and the fluorescence microscope images of the cultured human colon cancer cell T84 were examined in the manner described in Example 5.

The subject of data set [4] is macrophage cells (RAW264). The data set can be described thus: Staining of macrophage cells, confocal laser fluorescence microscopy. It is filed as cell-based. Particulars: stain solution in calf serum/D-MEM 1:9, fifteen minutes, 37° C., argon laser 488 nm, FIG. 9. How it is done: In the present Example, macrophage cells were stained using the pyridinium derivatives shown in Table 1 and the differences in cell staining were compared in order to investigate the effects of the alkyl chain lengths in R^7 and R^8.
Several micrograms of each pyridinium derivative (Compounds 10 and 21 to 23) were added to 10 milliliters of a liquid medium obtained by mixing calf serum and D-MEM base medium in a 1:9 ratio. The mixtures were left standing in a refrigerator overnight to dissolve the solids. 5 milliliters of the supernatant solutions were removed the next day and were used as cell staining solutions after filtering the solutions through sterilizing membrane filters with a pore diameter of […] p.m.
The macrophage cells (RAW264 of ATCC Co., Ltd.) were floated in HydroCell dishes manufactured by Cell Seed Co., Ltd. using a liquid culture obtained by mixing calf serum and D-MEM base medium in a 1:9 ratio.
The media were removed from the glass bottom dishes on which the RAW264 cells were supported, and 0.2 ml of each stain solution was added. The cells were stained by leaving the dish standing for fifteen minutes in a CO2 incubator at 37° C. The stain solutions were subsequently removed, and the media were exchanged three times using a liquid medium obtained by mixing calf serum and D-MEM base medium in 1:9 ratio. […] The results are shown in terms of fluorescence microscopic images (FIG. 9).

The mark [5] stands for this setting: 1,4-Dioxane, solvent polarity ET(30) 36.0.
Where [6] appears, read: Acetone, solvent polarity ET(30) 42.2.
Where [7] appears, read: DMSO, solvent polarity ET(30) 45.1.
Setting [8] is: Comparative Example 1, blue diode laser 405 nm, FIG. 11.

With `CCCCCCN(CCCCCC)c1ccc(-c2ccc(-c3ccncc3)s2)cc1` [Compound 3, N,N-dihexyl-4-[5-(pyridine-4-yl)thiophene-2-yl]aniline], the “Maximum fluorescence emission wavelength” value was found to be 467 nm in data set [1] (1,4-Dioxane, ET(30) 36.0); 507 nm in data set [1] (Acetone, ET(30) 42.2); 522 nm in data set [1] (DMSO, ET(30) 45.1). In addition, the Maximum absorption wavelength in data set [2] (setting [5]) came out at 389 nm; in data set [2] (setting [6]) it was 391 nm; in data set [2] (setting [7]), 401 nm. Besides, the Molar absorption coefficient in data set [2] (1,4-Dioxane, ET(30) 36.0) was 31,000 mol^−1cm^−1; in data set [2] (Acetone, ET(30) 42.2), 33,000 mol^−1cm^−1; in data set [2] (DMSO, ET(30) 45.1), 32,000 mol^−1cm^−1.

For `CCCCCCN(CCCCCC)c1ccc(-c2ccc(-c3ccccn3)s2)cc1` [Compound 4, N,N-dihexyl-4-[5-(pyridine-2-yl)thiophene-2-yl]aniline], the “Maximum fluorescence emission wavelength” value in data set [1] (1,4-Dioxane, ET(30) 36.0) amounted to 459 nm; in data set [1] (Acetone, ET(30) 42.2), 488 nm; in data set [1] (DMSO, ET(30) 45.1) it was 507 nm. Moreover, the figures for the Maximum absorption wavelength in data set [2] (setting [5]), in data set [2] (setting [6]) and in data set [2] (setting [7]) were 387 nm, 385 nm and 395 nm, respectively. In addition, the Molar absorption coefficient in data set [2] (1,4-Dioxane, ET(30) 36.0) was 33,000 mol^−1cm^−1; in data set [2] (Acetone, ET(30) 42.2), 33,000 mol^−1cm^−1; in data set [2] (DMSO, ET(30) 45.1), 31,000 mol^−1cm^−1.

Take `CCCCCCN(CCCCCC)c1ccc(-c2ccc(-c3ncccn3)s2)cc1` [Compound 5, N,N-dihexyl-4-[5-(pyrimidine-2-yl)thiophene-2-yl]aniline]: the “Maximum fluorescence emission wavelength” value in data set [1] (1,4-Dioxane, ET(30) 36.0) came to 472 nm; in data set [1] (Acetone, ET(30) 42.2), 507 nm; in data set [1] (DMSO, ET(30) 45.1) it was 522 nm. In addition, the results for the Maximum absorption wavelength in data set [2] (setting [5]), in data set [2] (setting [6]) and in data set [2] (setting [7]) were 395 nm, 395 nm and 406 nm, respectively. In addition, the Molar absorption coefficient in data set [2] (1,4-Dioxane, ET(30) 36.0) is on record as 33,000 mol^−1cm^−1; in data set [2] (Acetone, ET(30) 42.2), 33,000 mol^−1cm^−1; in data set [2] (DMSO, ET(30) 45.1), 31,000 mol^−1cm^−1.

Regarding `CCCCCCN(CCCCCC)c1ccc(-c2ccc(-c3cc[n+](C)cc3)s2)cc1.F[B-](F)(F)F` [Compound 7, 4-[5-(4-dihexylamino)phenyl]thiophene-2-yl-1-methylpyridinium tetrafluoroborate], the Cell staining result in data set [3] (2×10^−5 M in DMSO, five minutes, room temperature, argon laser 488 nm, FIG. 7) is “cell membranes of colon cancer cells T84 are stained”. In addition, the Laser caused fading entry in data set [3] (confocal laser microscope, conditions of the experiment) is listed as “did not undergo laser caused fading”.

For the molecule `CCN(CC)c1ccc(-c2ccc(-c3cc[n+](C)cc3)s2)cc1.O=S(=O)([O-])C(F)(F)F` [Compound 21], in data set [4], the Cell staining pattern entry is “Entire cells were stained with fluorescence”.

For `CCCCN(CCCC)c1ccc(-c2ccc(-c3cc[n+](C)cc3)s2)cc1.O=S(=O)([O-])C(F)(F)F` [Compound 22, 4-[5-(4-dibutylamino)phenyl]thiophene-2-O-1-methylpyridinium trifluoromethane sulfonate], the Cell staining pattern result in data set [4] is “the cell membrane and mitochondria were selectively stained”.

As to `CCCCCCCCN(CCCCCCCC)c1ccc(-c2ccc(-c3cc[n+](C)cc3)s2)cc1.O=S(=O)([O-])C(F)(F)F` [Compound 23], the Cell staining pattern entry in data set [4] is “the entire cell was stained with fluorescence but the fluorescence intensity was low and the stain was not even”.

As to `CN(C)c1ccc(-c2ccc(-c3ccc(S(=O)(=O)OCC(C)(C)C)cc3)s2)cc1` [reference compound], in data set [3] (setting [8]), the Cell staining entry is listed as “the cell membrane was selectively labeled with fluorescence” and the “Change of fluorescence wavelength between cell sections” value is “remained almost unchanged”.
